The assay addresses MC1R on B16/F10 murine melanoma cells (Mus musculus, UniProt Q01727). Nature of the assay: In vitro competitive binding assay.

Molecules are shown by their SMILES.

Chain of MC1R on B16/F10 murine melanoma cells (Q01727 whole entry): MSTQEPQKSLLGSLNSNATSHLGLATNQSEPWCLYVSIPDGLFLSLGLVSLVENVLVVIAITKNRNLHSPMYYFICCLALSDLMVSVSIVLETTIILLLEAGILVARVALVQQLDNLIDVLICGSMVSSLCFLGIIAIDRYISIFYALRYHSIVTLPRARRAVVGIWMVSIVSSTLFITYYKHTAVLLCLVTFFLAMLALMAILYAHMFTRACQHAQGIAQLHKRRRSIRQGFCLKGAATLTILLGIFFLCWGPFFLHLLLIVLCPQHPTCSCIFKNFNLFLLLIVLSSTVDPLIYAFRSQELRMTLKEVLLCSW

What is called IC50 is the concentration needed to halve the response being measured. A high value points to weaker potency. In the case of `CSCC[C@H](NC(=O)[C@H](CO)NC(=O)[C@H](Cc1ccc(O)cc1)NC(=O)[C@H](CO)NC(=O)CN1CCN(CC(=O)O)CCN(CC(=O)O)CCN(CC(=O)O)CC1)C(=O)N[C@@H](CCC(=O)O)C(=O)N[C@@H](Cc1c[nH]cn1)C(=O)N[C@@H](Cc1ccccc1)C(=O)N[C@@H](CCCNC(=N)N)C(=O)N[C@@H](Cc1c[nH]c2ccccc12)C(=O)NCC(=O)N[C@@H](CCCCN)C(=O)N1CCC[C@H]1C(=O)N[C@H](C(N)=O)C(C)C` [DOTA-a-MSH], the IC50 worked out at 1.8 ± 0.3 nM.

Source of the values: publication PMC3799893 (Recent results in cancer research. Fortschritte der …, 2013).
